The values that follow come from US12281079B2, “Quinoline derivatives, processes for their preparation and uses thereof for the treatment of cancer” (Lead Discovery Center GmbH, priority 2019, dated 2025).

The target of experiment [1] is mitochondrial RNA polymerase (POLRMT) (Mus musculus, UniProt Q8BKF1). As to the kind of experiment: Homogeneous TR-FRET assay for mitochondrial transcription activity. The following applies: homogeneous TR-FRET assay according to Example 4. Format: biochemical. The method, boiled down: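 Read-out is TR-FRET (ex 340, em 665 nm) from two adjacent labelled DNA probes annealing to the 407 bp transcript after EDTA/700 mM NaCl stop. Reaction: murine POLRMT, TFAM, TFB2M and LSP plasmid template, compound 10 μM or serial dilution, 10 min rt preincubation, 500 μM each nucleotide, 2 h rt.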

In experiment [2] the test system is mitochondrial transcription (7S RNA) in HeLa cells. As to the kind of experiment: Quantitative real time-PCR assay of inhibition of mitochondrial transcription (7S RNA) in HeLa cells. The following applies: Homo sapiens, 4 h compound incubation, according to Example 5, read-out: cellular qPCR assay. Format: cell-based. The procedure, abridged: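 HeLa cells were exposed to compound dilution series or DMSO for 4 h, then RNA was extracted, normalized and reverse-transcribed. TaqMan qRT-PCR measured short-lived 7S RNA, with POLRMT as nuclear-transcription readout and TBP as housekeeping gene. Biological triplicates were analyzed by ΔΔCt and reported as Rq % (2−ΔΔCt).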

Chain of mitochondrial RNA polymerase (POLRMT) (Q8BKF1 42-1207): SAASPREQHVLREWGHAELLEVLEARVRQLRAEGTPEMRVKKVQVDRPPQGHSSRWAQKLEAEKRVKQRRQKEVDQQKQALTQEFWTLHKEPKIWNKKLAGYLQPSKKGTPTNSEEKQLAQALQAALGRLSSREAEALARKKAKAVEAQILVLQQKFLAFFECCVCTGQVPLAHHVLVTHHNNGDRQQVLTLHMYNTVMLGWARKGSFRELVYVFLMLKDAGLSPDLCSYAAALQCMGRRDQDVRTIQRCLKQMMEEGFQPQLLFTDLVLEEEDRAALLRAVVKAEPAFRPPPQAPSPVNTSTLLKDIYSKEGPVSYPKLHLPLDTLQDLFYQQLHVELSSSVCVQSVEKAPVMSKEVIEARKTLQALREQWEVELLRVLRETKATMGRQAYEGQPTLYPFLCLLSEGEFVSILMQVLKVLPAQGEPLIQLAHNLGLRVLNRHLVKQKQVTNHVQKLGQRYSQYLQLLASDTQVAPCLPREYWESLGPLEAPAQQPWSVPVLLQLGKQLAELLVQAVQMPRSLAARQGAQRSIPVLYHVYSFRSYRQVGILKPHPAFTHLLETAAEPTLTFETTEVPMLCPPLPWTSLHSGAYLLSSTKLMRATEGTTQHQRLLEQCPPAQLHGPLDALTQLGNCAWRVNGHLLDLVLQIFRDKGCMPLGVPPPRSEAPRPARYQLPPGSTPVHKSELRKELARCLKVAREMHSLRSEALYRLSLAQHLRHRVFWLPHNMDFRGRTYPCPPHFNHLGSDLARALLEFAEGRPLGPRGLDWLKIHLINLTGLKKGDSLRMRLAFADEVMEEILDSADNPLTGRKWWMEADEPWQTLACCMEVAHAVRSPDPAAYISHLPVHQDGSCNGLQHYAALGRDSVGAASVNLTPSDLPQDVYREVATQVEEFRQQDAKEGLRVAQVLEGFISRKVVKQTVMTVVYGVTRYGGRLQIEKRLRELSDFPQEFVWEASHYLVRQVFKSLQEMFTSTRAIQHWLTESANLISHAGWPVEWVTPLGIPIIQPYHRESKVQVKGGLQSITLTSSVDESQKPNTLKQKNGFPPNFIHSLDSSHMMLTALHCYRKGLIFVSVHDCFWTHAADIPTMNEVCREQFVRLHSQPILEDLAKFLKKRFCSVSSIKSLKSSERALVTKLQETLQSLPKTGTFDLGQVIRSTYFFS

On to `C[C@@H](Oc1ccc2c(-c3ccc(F)cc3Cl)ccnc2c1)C(=O)N1CCCC(C2(C(=O)O)CC2)C1` (mixture of isomers) [Compound 194, 1-[1-[rac-(2R)-2-[[4-(2-chloro-4-fluoro-phenyl)-7-quinolyl]oxy]propanoyl]-3-piperidyl]cyclopropanecarboxylic acid], for which the IC50 lay in the range of 20 to 100 nM in experiment [1] and 10 to 50 nM in experiment [2].

With `C[C@@H](Oc1ccc2c(-c3ccc(F)cc3Cl)ccnc2c1)C(=O)N1CC[C@@H](CC(=O)O)C1` [Compound 39, 2-[(3S)-1-[(2R)-2-[[4-(2-chloro-4-fluoro-phenyl)-7-quinolyl]oxy]propanoyl]pyrrolidin-3-yl]acetic acid], the IC50 in experiment [1] lay within 100 to 1000 nM; in experiment [2] it was 50 to 500 nM.

As for `C[C@@H](Oc1ccc2c(-c3c(Cl)cc(F)cc3Cl)ccnc2c1)C(=O)N1CCOCC1` [Compound 201, (2R)-2-[[4-(2,6-dichloro-4-fluoro-phenyl)-7-quinolyl]oxy]-1-morpholino-propan-1-one], the IC50 lay within 100 to 1000 nM in experiment [1] and 10 to 50 nM in experiment [2].

Consider `C[C@@H](Oc1ccc2c(-c3ccccc3Cl)ccnc2c1)C(=O)N1CCC[C@H](CC(=O)O)C1` [Compound 16, 2-[(3R)-1-[(2R)-2-[[4-(2-chlorophenyl)-7-quinolyl]oxy]propanoyl]-3-piperidyl]acetic acid], for which the IC50 lay in the range of 20 to 100 nM in experiment [1] and 50 to 500 nM in experiment [2].

Regarding `Cc1ccccc1-c1ccnc2cc(O[C@H](C)C(=O)N3CCC[C@H](C(=O)O)C3)ccc12` [Compound 1, (3S)-1-[(2R)-2-[[4-(o-tolyl)-7-quinolyl]oxy]propanoyl]piperidine-3-carboxylic acid], the IC50 in experiment [1] was less than 20 nM; in experiment [2], less than 10 nM.

Turning to `C[C@@H](Oc1ccc2c(-c3c(Cl)cc(F)cc3Cl)ccnc2c1)C(=O)N1CCCC(C2(O)CC2)C1` (mixture of isomers) [Compound 203, rac-(2R)-2-[[4-(2,6-dichloro-4-fluoro-phenyl)-7-quinolyl]oxy]-143-(1-hydroxycyclopropyl)-1-piperidyl]propan-1-one], the IC50 in experiment [1] fell in the range of 100 to 1000 nM; in experiment [2], 10 to 50 nM.

Turning to `Cc1cc(F)cc(C)c1-c1ccnc2cc(O[C@H](C)C(=O)N3CCC4(CC3)COC4)ccc12` [Compound 179, (2R)-2-[[4-(4-fluoro-2,6-dimethyl-phenyl)-7-quinolyl]oxy]-1-(2-oxa-7-azaspiro[3.5]nonan-7-yl)propan-1-one], the IC50 in experiment [1] was less than 20 nM; in experiment [2], less than 10 nM.

As to `C[C@@H](Oc1ccc2c(-c3ccccc3Cl)ccnc2c1)C(=O)N1CCC(CCC(=O)O)CC1` [Compound 118, 3-[1-[(2R)-2-[[4-(2-chlorophenyl)-7-quinolyl]oxy]propanoyl]-4-piperidyl]propanoic acid], the values for the IC50 in experiment [1] and in experiment [2] were less than 20 nM and 10 to 50 nM, respectively.

For `C[C@@H](Oc1ccc2c(-c3ccccc3Cl)ccnc2c1)C(=O)N1CCC[C@H](C(=O)O)C1` [Compound 9, (3S)-1-[(2R)-2-[[4-(2-chlorophenyl)-7-quinolyl]oxy]propanoyl]piperidine-3-carboxylic acid], the IC50 in experiment [1] is less than 20 nM; in experiment [2], less than 10 nM.

With `CC1CCCC(C)N1C(=O)[C@@H](C)Oc1ccc2c(-c3ccc(F)cc3Cl)ccnc2c1` (stereo partly drawn) [Compound 211, (2R)-2-[[4-(2-chloro-4-fluoro-phenyl)-7-quinolyl]oxy]-1-(2,6-dimethyl-1-piperidyl)propan-1-one], the IC50 was in the range of 100 to 1000 nM in experiment [1] and 10 to 50 nM in experiment [2].

For the compound `Cc1cc(-c2c(C)cccc2C)c2ccc(O[C@H](C)C(=O)N3CCC[C@H](S(N)(=O)=O)C3)cc2n1` [Compound 113, (3S)-1-[(2R)-2-[[4-(2,6-dimethylphenyl)-2-methyl-7-quinolyl]oxy]propanoyl]piperidine-3-sulfonamide], the figures for the IC50 in experiment [1] and in experiment [2] were 100 to 1000 nM and 50 to 500 nM, respectively.

`C[C@@H](Oc1ccc2c(-c3ccc(F)cc3Cl)ccnc2c1)C(=O)Nc1cccc(C(=O)O)c1` [Compound 26, 3-[[(2R)-2-[[4-(2-chloro-4-fluoro-phenyl)-7-quinolyl]oxy]propanoyl]amino]benzoic acid]: the IC50 in experiment [1] was in the range of 20 to 100 nM; in experiment [2] it was 50 to 500 nM.

With `CCOC(=O)C[C@H]1CCCN(C(=O)[C@@H](C)Oc2ccc3c(-c4ccc(F)cc4Cl)cc(C)nc3c2)C1` [Compound 74, ethyl 2-[(3R)-1-[(2R)-2-[[4-(2-chloro-4-fluoro-phenyl)-2-methyl-7-quinolyl]oxy]propanoyl]-3-piperidyl]acetate], the IC50 lay in the range of 100 to 1000 nM in experiment [1] and 50 to 500 nM in experiment [2].

Consider `CC(Oc1ccc2c(-c3ccc(F)cc3Cl)ccnc2n1)C(=O)N1CCC[C@H](C(=O)O)C1` (mixture of isomers) [Compound 62, (3S)-1-[2-[[5-(2-chloro-4-fluoro-phenyl)-1,8-naphthyridin-2-yl]oxy]propanoyl]piperidine-3-carboxylic acid], for which the results for the IC50 in experiment [1] and in experiment [2] were 100 to 1000 nM and 10 to 50 nM, respectively.

On to `C[C@@H](Oc1ccc2c(-c3ccc(F)cc3Cl)ccnc2c1)C(=O)N1CCC[C@@H](C(=O)O)C1` [Compound 17, (3R)-1-[(2R)-2-[[4-(2-chloro-4-fluoro-phenyl)-7-quinolyl]oxy]propanoyl]piperidine-3-carboxylic acid], for which the IC50 in experiment [1] was in the range of 20 to 100 nM; in experiment [2], 50 to 500 nM.

In the case of `CCOC(=O)C[C@H]1CCCN(C(=O)[C@@H](C)Oc2ccc3c(-c4ccc(F)cc4Cl)ccnc3c2)C1` [Compound 15, ethyl 2-((R)-1-((R)-2-((4-(2-chloro-4-fluorophenyl)quinolin-7-yl)oxy)propanoyl)piperidin-3-yl)acetate], the IC50 in experiment [1] fell in the range of 20 to 100 nM; in experiment [2], 50 to 500 nM.

Turning to `C[C@@H](Oc1ccc2c(-c3ccccc3Cl)ccnc2c1)C(=O)OC(C)(C)C` [Compound 29, tert-butyl (2R)-2-[[4-(2-chlorophenyl)-7-quinolyl]oxy]propanoate], the IC50 in experiment [1] was 100 to 1000 nM; in experiment [2], less than 10 nM.

In the case of `Cc1cc(F)cc(C)c1-c1ccnc2cc(O[C@H](C)C(=O)N3CCOCC3)ccc12` [Compound 178, (2R)-2-[[4-(4-fluoro-2,6-dimethyl-phenyl)-7-quinolyl]oxy]-1-morpholino-propan-1-one], the values for the IC50 in experiment [1] and in experiment [2] were less than 20 nM and 10 to 50 nM, respectively.

For `C[C@@H](Oc1ccc2c(-c3ccc(F)cc3Cl)ccnc2c1)C(=O)N1CCCCC1` [Compound 20, (2R)-2[[4-(2-chloro-4-fluoro-phenyl)-7-quinolyl]oxy]-1-(1-piperidyl)propan-1-one], the IC50 in experiment [1] was 20 to 100 nM; in experiment [2], 10 to 50 nM.

For the compound `CCOC(=O)C[C@H]1CCCN(C(=O)[C@@H](C)Oc2ccc3c(-c4ccccc4C)cc(C)nc3c2)C1` [Compound 49, ethyl 2-[(3R)-1-[(2R)-2-[[2-methyl-4-(o-tolyl)-7-quinolyl]oxy]propanoyl]-3-piperidyl]acetate], the IC50 in experiment [1] lay in the range of 100 to 1000 nM; in experiment [2] it was 10 to 50 nM.

For `C[C@@H](Oc1ccc2c(-c3c(Cl)cc(F)cc3Cl)ccnc2c1)C(=O)N1CCC2(CC1)COC2` [Compound 208, (2R)-2-[[4-(2,6-dichloro-4-fluoro-phenyl)-7-quinolyl]oxy]-1-(2-oxa-7-azaspiro[3.5]nonan-7-yl)propan-1-one], the IC50 was 100 to 1000 nM in experiment [1] and 10 to 50 nM in experiment [2].

Take `CCC(=O)N1CCN(C(=O)[C@@H](C)Oc2ccc3c(-c4ccc(F)cc4Cl)ccnc3c2)CC1` [Compound 28, (R)-2-((4-(2-chloro-4-fluorophenyl)quinolin-7-yl)oxy)-1-(4-propionylpiperazin-1-yl)propan-1-one]: the IC50 lay in the range of 100 to 1000 nM in experiment [1] and 10 to 50 nM in experiment [2].

In the case of `C[C@@H](Oc1ccc2c(-c3ccc(F)cc3Cl)cc(Cl)nc2c1)C(=O)N1CCC[C@H](C(=O)O)C1` [Compound 64, (3S)-1-[(2R)-2-[[2-chloro-4-(2-chloro-4-fluoro-phenyl)-7-quinolyl]oxy]propanoyl]piperidine-3-carboxylic acid], the values for the IC50 in experiment [1] and in experiment [2] were 100 to 1000 nM and 50 to 500 nM, respectively.

As to `C[C@@H](Oc1ccc2c(-c3ccc(F)cc3Cl)ccnc2n1)C(=O)N1CCC[C@H](C(=O)O)C1` [Compound 126, (3S)-1-[(2R)-2-[[5-(2-chloro-4-fluoro-phenyl)-1,8-naphthyridin-2-yl]oxy]propanoyl]piperidine-3-carboxylic acid], the IC50 in experiment [1] lay in the range of 100 to 1000 nM; in experiment [2] it was 10 to 50 nM.

Turning to `C[C@@H](Oc1ccc2c(-c3ccc(F)cc3Cl)ccnc2c1)C(=O)N1CCOCC1` [Compound 206, (2R)-2-[[4-(2-chloro-4-fluoro-phenyl)-7-quinolyl]oxy]-1-morpholino-propan-1-one], the IC50 in experiment [1] lay in the range of 100 to 1000 nM; in experiment [2] it was 10 to 50 nM.

Take `C[C@@H](Oc1ccc2c(-c3c(Cl)cc(F)cc3Cl)ccnc2c1)C(=O)N1CCC2(CCNC2=O)CC1` [Compound 202, 8-[(2R)-2-[[4-(2,6-dichloro-4-fluoro-phenyl)-7-quinolyl]oxy]propanoyl]-2,8-diazaspiro[4.5]decan-1-one]: the IC50 in experiment [1] fell in the range of 100 to 1000 nM; in experiment [2], 10 to 50 nM.

As for `C[C@@H](Oc1ccc2c(-c3ccc(F)cc3Cl)ccnc2c1)C(=O)N1CCC[C@@H](CC(=O)O)C1` [Compound 22, 2-[(3S)-1-[(2R)-2-[[4-(2-chloro-4-fluoro-phenyl)-7-quinolyl]oxy]propanoyl]-3-piperidyl]acetic acid], the figures for the IC50 in experiment [1] and in experiment [2] were 20 to 100 nM and 50 to 500 nM, respectively.

For `C[C@@H](Oc1ccc2c(-c3ccccc3Cl)ccnc2c1)C(=O)N1CCC(CC(=O)O)CC1` [Compound 112, 2-[1-[(2R)-2-[[4-(2-chlorophenyl)-7-quinolyl]oxy]propanoyl]-4-piperidyl]acetic acid], the IC50 in experiment [1] is 20 to 100 nM; in experiment [2], 10 to 50 nM.
